Source: ChEMBL document CHEMBL1132087, “New N-substituted 7-aminocephalosporanic acid derivatives as potential agents against Streptococcus pneumoniae. Synthesis and in vitro activity” (1999)
In brackets after ≈: the same amount, converted by molar mass.

Key:
Assay type in all cases: functional
[1] = tested on: Streptococcus pneumoniae; test: In vitro antibacterial activity against the gram-positive bacteria, penicillin resistant Streptococcus pneumoniae (4629)
[2] = tested on: Streptococcus pneumoniae; test: In vitro antibacterial activity against the gram-positive bacteria, penicillin resistant Streptococcus pneumoniae (4630)
[3] = tested on: Streptococcus pneumoniae; test: In vitro antibacterial activity against the gram-positive bacteria, penicillin resistant Streptococcus pneumoniae (4635)
[4] = tested on: Streptococcus pneumoniae; test: In vitro antibacterial activity against the gram-positive bacteria, penicillin resistant Streptococcus pneumoniae (4636)
[5] = tested on: Streptococcus pneumoniae; test: In vitro antibacterial activity against the gram-positive bacteria, penicillin sensitive Streptococcus pneumoniae (3273)
[6] = tested on: Streptococcus pneumoniae; test: In vitro antibacterial activity against the gram-positive bacteria, penicillin sensitive Streptococcus pneumoniae (3512)
[7] = tested on: Staphylococcus aureus; test: In vitro antibacterial activity against the gram-positive bacteria, penicillin resistant Staphylococcus aureus (2619)
[8] = tested on: Staphylococcus aureus; test: In vitro antibacterial activity against the gram-positive bacteria, penicillin resistant Staphylococcus aureus (2672)
[9] = tested on: Staphylococcus aureus; test: In vitro antibacterial activity against the gram-positive bacteria, penicillin resistant Staphylococcus aureus (853)
[10] = tested on: Staphylococcus aureus; test: In vitro antibacterial activity against the gram-positive bacteria, penicillin sensitive Staphylococcus aureus (3072)
[11] = tested on: Staphylococcus aureus; test: In vitro antibacterial activity against the gram-positive bacteria, penicillin sensitive Staphylococcus aureus (663E)
[12] = tested on: Streptococcus pyogenes; test: In vitro antibacterial activity against the gram-positive bacteria, erythromycin resistant Streptococcus pyogenes
[13] = tested on: Streptococcus pneumoniae; test: In vitro antibacterial activity against the gram-positive bacteria, penicillin sensitive Streptococcus pneumoniae (3272)
[14] = tested on: Staphylococcus aureus; test: In vitro antibacterial activity against the gram-positive bacteria, penicillin sensitive Staphylococcus aureus (3849)

CC(=O)OCC1=C(C(=O)O)N2C(=O)[C@@H](NC(=O)CN(OCc3ccccc3Cl)C(=O)NCc3ccccc3)C2SC1 (stereo not given in full)
MIC [1]: 16 µg/mL (≈ 26.5 µM) | MIC [2]: 16 µg/mL (≈ 26.5 µM) | MIC [3]: 4 µg/mL (≈ 6.63 µM) | MIC [4]: 64 µg/mL (≈ 106 µM) | MIC [5]: 0.5 µg/mL (≈ 0.829 µM) | MIC [6]: 0.25 µg/mL (≈ 0.415 µM) | MIC [7]: 1 µg/mL (≈ 1.66 µM) | MIC [8]: 4 µg/mL (≈ 6.63 µM) | MIC [9]: 1 µg/mL (≈ 1.66 µM) | MIC [10]: 1 µg/mL (≈ 1.66 µM) | MIC [11]: 0.5 µg/mL (≈ 0.829 µM) | MIC [12]: 0.25 µg/mL (≈ 0.415 µM) | MIC [13]: 0.5 µg/mL (≈ 0.829 µM) | MIC [14]: 0.5 µg/mL (≈ 0.829 µM)

CC(=O)OCC1=C(C(=O)O)N2C(=O)[C@@H](NC(=O)CN(OCc3ccc(Cl)cc3)C(=O)Nc3ccccc3)C2SC1 (stereo not given in full)
MIC [1]: 8 µg/mL (≈ 13.6 µM) | MIC [2]: 4 µg/mL (≈ 6.79 µM) | MIC [3]: 4 µg/mL (≈ 6.79 µM) | MIC [4]: 16 µg/mL (≈ 27.2 µM) | MIC [5]: 0.25 µg/mL (≈ 0.424 µM) | MIC [6]: 0.06 µg/mL (≈ 0.102 µM) | MIC [7]: 1 µg/mL (≈ 1.7 µM) | MIC [8]: 4 µg/mL (≈ 6.79 µM) | MIC [9]: 1 µg/mL (≈ 1.7 µM) | MIC [10]: 0.5 µg/mL (≈ 0.849 µM) | MIC [11]: 0.5 µg/mL (≈ 0.849 µM) | MIC [12]: 0.06 µg/mL (≈ 0.102 µM) | MIC [13]: 0.12 µg/mL (≈ 0.204 µM) | MIC [14]: 0.5 µg/mL (≈ 0.849 µM)

CC(=O)OCC1=C(C(=O)O)N2C(=O)[C@@H](NC(=O)CN(OCc3cccc(Cl)c3)C(=O)NCc3ccccc3)C2SC1 (stereo not given in full)
MIC [1]: 8 µg/mL (≈ 13.3 µM) | MIC [2]: 8 µg/mL (≈ 13.3 µM) | MIC [3]: 4 µg/mL (≈ 6.63 µM) | MIC [4]: 32 µg/mL (≈ 53.1 µM) | MIC [5]: 0.5 µg/mL (≈ 0.829 µM) | MIC [6]: 0.25 µg/mL (≈ 0.415 µM) | MIC [7]: 2 µg/mL (≈ 3.32 µM) | MIC [8]: 2 µg/mL (≈ 3.32 µM) | MIC [9]: 1 µg/mL (≈ 1.66 µM) | MIC [10]: 1 µg/mL (≈ 1.66 µM) | MIC [11]: 1 µg/mL (≈ 1.66 µM) | MIC [12]: 0.25 µg/mL (≈ 0.415 µM) | MIC [13]: 0.25 µg/mL (≈ 0.415 µM) | MIC [14]: 0.5 µg/mL (≈ 0.829 µM)

CC(=O)OCC1=C(C(=O)O)N2C(=O)[C@@H](NC(=O)CN(OCc3ccc(Cl)cc3)C(=O)NCc3ccccc3)C2SC1 (stereo not given in full)
MIC [1]: 8 µg/mL (≈ 13.3 µM) | MIC [2]: 8 µg/mL (≈ 13.3 µM) | MIC [3]: 4 µg/mL (≈ 6.63 µM) | MIC [4]: 32 µg/mL (≈ 53.1 µM) | MIC [5]: 0.5 µg/mL (≈ 0.829 µM) | MIC [6]: 0.25 µg/mL (≈ 0.415 µM) | MIC [7]: 1 µg/mL (≈ 1.66 µM) | MIC [8]: 2 µg/mL (≈ 3.32 µM) | MIC [9]: 1 µg/mL (≈ 1.66 µM) | MIC [10]: 1 µg/mL (≈ 1.66 µM) | MIC [11]: 0.5 µg/mL (≈ 0.829 µM) | MIC [12]: 0.12 µg/mL (≈ 0.199 µM) | MIC [13]: 0.25 µg/mL (≈ 0.415 µM) | MIC [14]: 0.5 µg/mL (≈ 0.829 µM)

N[C@@H](C(=O)N[C@@H]1C(=O)N2C(C(=O)O)=C(Cl)CS[C@H]12)c1ccccc1 [CEFACLOR ANHYDROUS]
MIC [1]: 32 µg/mL (≈ 87 µM) | MIC [2]: 16 µg/mL (≈ 43.5 µM) | MIC [3]: 16 µg/mL (≈ 43.5 µM) | MIC [4]: 16 µg/mL (≈ 43.5 µM) | MIC [5]: 0.5 µg/mL (≈ 1.36 µM) | MIC [6]: 1 µg/mL (≈ 2.72 µM) | MIC [7]: 16 µg/mL (≈ 43.5 µM) | MIC [8]: 64 µg/mL (≈ 174 µM) | MIC [9]: 64 µg/mL (≈ 174 µM) | MIC [10]: 4 µg/mL (≈ 10.9 µM) | MIC [11]: 1 µg/mL (≈ 2.72 µM) | MIC [12]: 0.5 µg/mL (≈ 1.36 µM) | MIC [13]: 1 µg/mL (≈ 2.72 µM) | MIC [14]: 1 µg/mL (≈ 2.72 µM)

CO/N=C(\C(=O)N[C@@H]1C(=O)N2C(C(=O)[O-])=C(C[n+]3cccc4c3CCC4)CS[C@H]12)c1csc(N)n1 [CEFPIROME]
MIC [1]: 2 µg/mL (≈ 3.89 µM) | MIC [2]: 1 µg/mL (≈ 1.94 µM) | MIC [3]: < 0.5 µg/mL | MIC [4]: < 0.5 µg/mL | MIC [5]: 0.06 µg/mL (≈ 0.117 µM) | MIC [6]: 0.06 µg/mL (≈ 0.117 µM) | MIC [7]: 2 µg/mL (≈ 3.89 µM) | MIC [8]: 2 µg/mL (≈ 3.89 µM) | MIC [9]: 2 µg/mL (≈ 3.89 µM) | MIC [10]: 1 µg/mL (≈ 1.94 µM) | MIC [11]: 1 µg/mL (≈ 1.94 µM) | MIC [12]: 0.03 µg/mL (≈ 0.0583 µM) | MIC [13]: 0.06 µg/mL (≈ 0.117 µM) | MIC [14]: 1 µg/mL (≈ 1.94 µM)

CO/N=C(\C(=O)N[C@@H]1C(=O)N2C(C(=O)O)=C(CSc3nc(=O)c(O)nn3C)CS[C@H]12)c1csc(N)n1 [CEFTRIAXONE]
MIC [1]: 4 µg/mL (≈ 7.21 µM) | MIC [2]: 2 µg/mL (≈ 3.61 µM) | MIC [3]: 1 µg/mL (≈ 1.8 µM) | MIC [4]: 1 µg/mL (≈ 1.8 µM) | MIC [5]: 0.03 µg/mL (≈ 0.0541 µM) | MIC [6]: 0.03 µg/mL (≈ 0.0541 µM) | MIC [7]: 4 µg/mL (≈ 7.21 µM) | MIC [8]: 4 µg/mL (≈ 7.21 µM) | MIC [9]: 4 µg/mL (≈ 7.21 µM) | MIC [10]: 4 µg/mL (≈ 7.21 µM) | MIC [11]: 2 µg/mL (≈ 3.61 µM) | MIC [12]: 0.06 µg/mL (≈ 0.108 µM) | MIC [13]: 0.03 µg/mL (≈ 0.0541 µM) | MIC [14]: 2 µg/mL (≈ 3.61 µM)

CO/N=C(\C(=O)N[C@@H]1C(=O)N2C(C(=O)O)=C(COC(N)=O)CS[C@H]12)c1ccco1 [CEFUROXIME]
MIC [1]: 32 µg/mL (≈ 75.4 µM) | MIC [2]: 16 µg/mL (≈ 37.7 µM) | MIC [3]: 32 µg/mL (≈ 75.4 µM) | MIC [4]: 16 µg/mL (≈ 37.7 µM) | MIC [5]: 0.25 µg/mL (≈ 0.589 µM) | MIC [6]: 0.06 µg/mL (≈ 0.141 µM) | MIC [7]: 2 µg/mL (≈ 4.71 µM) | MIC [8]: 2 µg/mL (≈ 4.71 µM) | MIC [9]: 2 µg/mL (≈ 4.71 µM) | MIC [10]: 2 µg/mL (≈ 4.71 µM) | MIC [11]: 1 µg/mL (≈ 2.36 µM) | MIC [12]: 0.06 µg/mL (≈ 0.141 µM) | MIC [13]: 0.06 µg/mL (≈ 0.141 µM) | MIC [14]: 1 µg/mL (≈ 2.36 µM)

CC1(C)S[C@@H]2[C@H](NC(=O)Cc3ccccc3)C(=O)N2[C@H]1C(=O)O [PENICILLIN G]
MIC [1]: 4 µg/mL (≈ 12 µM) | MIC [2]: 4 µg/mL (≈ 12 µM) | MIC [3]: 8 µg/mL (≈ 23.9 µM) | MIC [4]: 8 µg/mL (≈ 23.9 µM) | MIC [5]: 0.5 µg/mL (≈ 1.5 µM) | MIC [6]: < 0.5 µg/mL | MIC [7]: 64 µg/mL (≈ 191 µM) | MIC [8]: 64 µg/mL (≈ 191 µM) | MIC [9]: 64 µg/mL (≈ 191 µM) | MIC [10]: < 0.5 µg/mL | MIC [11]: < 0.5 µg/mL | MIC [13]: < 0.5 µg/mL | MIC [14]: < 0.5 µg/mL
